The results in this text go back to US10705094B2, “TNF receptor signaling modulator assay” (UCB Biopharma SRL, priority 2015, dated 2020).

The structures appear in SMILES notation. Some results are limits rather than exact numbers.

Assay [1] has as its target TNFα and TNF-R (Homo sapiens, UniProt P01375). Nature of the assay: LC-MS analysis of size exclusion fractions of TNFα, TNF-R and compound. It is filed as binding. The following applies: compound added before or after TNFα/TNF-R complex formation. As for the experimental part:
Fractions from size exclusion chromatographic separation of mixtures of TNFα, TNF-R and the compound of formula (1) were analysed by liquid chromatography-mass spectrometry (LC-MS). Two samples were prepared for size exclusion chromatography.
In general terms: Size exclusion chromatography separates by hydrodynamic size, large species first.

In assay [2] the test system is TNFα-induced IL-8 production. The assay can be described thus: Inhibition of TNFα-induced IL-8 production in human monocytes. It counts as cell-based. The note with it: Monocyte, 18 h. As for the experimental part: Venous blood from healthy donors was collected by venupuncture into sodium/heparin containing tubes (BD Biosciences). Peripheral blood mononuclear cells (PBMC) were isolated by density gradient centrifugation with Ficoll Paque (Amersham Biosciences). Briefly, 10 mL of blood was diluted 1:1 (v/v) with RPMI 1640 (Gibco) and carefully layered onto 20 mL Ficoll Paque. Cells were spun down for 30 minutes (min) at 470 g, the PBMC collected, washed once in RPMI 1640 and any remaining contaminating erythrocytes lysed in erythrocyte lysis buffer (1 g/L KHCO3, 8.3 g/L NH4Cl, 0.0372 g/L EDTA). Isolation of monocytes from the PBMC was performed using CD14+ Magnetic MicroBeads (Miltenyi Biotec) according to the manufacturer's instructions. Briefly, PBMC were resuspended in Dulbecco's modified Eagle's medium containing 5% BSA (Sigma) and 2 mM EDTA (Sigma) at 1×10^7 cells/ml. 25 μL of CD14 MicroBeads per 10^7 total cells were incubated for 15 min at room temperature. The magnetic separation was performed using a LS column (Miltenyi Biotec). […]
Human IL-8 was measured in the cell culture supernatants using enzyme-linked immunosorbent assay (ELISA) kits from R&D Systems Ltd. according to the manufacturer's instructions. […] Plates were read at a wavelength of 630 nm with correction at 470 nm.

Assay [3] relates to TNFα stimulated neutrophil recruitment into the peritoneal cavity. The assay can be described thus: Neutrophil recruitment in mice, compound given orally before i.p. hTNFα. It counts as in vivo, Balb/c mice. As for the experimental part:
In a further experiment, mice were treated with hTNFα ([…]) and the compound of formula (1) was administered orally (p.o.).
The compound of formula (1) was made into a suspension in 1% methylcellulose vehicle using a covaris machine.
An anti-human TNFα monoclonal antibody (anti-hTNFα, UCB) was also utilised as a positive control in this study.
Ten male Balb/c mice were used per group except in the group that received anti-hTNFα for which 4 mice were used.
All mice were killed by cervical dislocation two hours post-injection of hTNFα (t=2 h) and the peritoneal cavity was lavaged and neutrophil numbers measured as described above.

Assay [4] addresses T1, CD40L (Homo sapiens, UniProt P29965).
T1 sequence (P29965 113-261 limits assumed): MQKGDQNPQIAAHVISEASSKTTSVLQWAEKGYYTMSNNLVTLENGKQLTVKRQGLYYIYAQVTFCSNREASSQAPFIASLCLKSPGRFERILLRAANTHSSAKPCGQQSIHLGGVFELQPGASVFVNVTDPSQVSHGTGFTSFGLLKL
The assay can be described thus: Mass spectrometric analysis of CD40L trimer stabilisation. The following applies: in the presence of DMSO. It counts as binding. An excerpt: Mass spectrometric analysis has shown that CD40L, which also forms homotrimers, is destabilised by DMSO, resulting in a reduced amount of the trimeric CD40L. The assay protocol used was the same as that described in Example 3 for TNFα, but using CD40L instead.

Assay [5] relates to activation of NF-κB by TNFα. The assay can be described thus: HEK-293 NF-κB SEAP reporter gene assay, TNFα stimulus. It is filed as cell-based. The following applies: Homo sapiens, HEK293; HEK-293 reporter cells, TNFα 0.5 ng/ml. As for the experimental part: (§1) Stimulation of HEK-293 cells by TNF-alpha leads to activation of the NF-kB pathway. The reporter cell line used to determine TNF alpha activity was purchased from Invivogen. HEK-Blue™ CD40L, is a stable transfectant expressing SEAP (secreted alkaline phosphatase) under the control of the IFN-beta minimal promoter fused to 5 NF-kB binding sites. Secretion of SEAP by these cells is stimulated in a concentration dependent manner by TNF-alpha (0.5 ng/ml), IL-1-beta (0.5 ng/ml) and an activating anti-human TNFR1 antibody (300 ng/ml).
Compounds were diluted from 10 mM DMSO stocks (final assay concentration 0.3%) to generate a 10 point 3 fold serial dilution curve (30,000 nM to 2 nM final concentration). They were mixed with stimulating ligand for 1 hour in a 384 well microtitre plate. […] SEAP activity was determined in the supernatant using the colorimetric substrate Quanti-Blue™ (Invivogen).
Percentage inhibitions for compound dilutions were calculated between a DMSO control and maximum inhibition (by excess control compound) and an IC50 calculated using xlfit (4 parameter logistic model) in Activity Base. […]
C87 was preincubated with TNFα for 1 hour prior to the addition to HEK-293 cells stably transfected with SEAP under the control of NFκB. […] The assay was incubated overnight before inhibition was measured compared to 100% blocking by a control compound. […]
For orientation: Reporter assays use an easily measured gene product as a stand-in for the process of interest.

The subject of assay [6] is activation of NF-κB by IL-1β. The assay can be described thus: HEK-293 NF-κB SEAP reporter gene assay, IL-1β counterscreen. It counts as cell-based. The following applies: Homo sapiens, HEK293; HEK-293 reporter cells, IL-1β 0.5 ng/ml. As to the method:
as §1
(§2) Compounds were diluted from 10 mM DMSO stocks (final assay concentration 0.3%) to generate a 10 point 3 fold serial dilution curve (30,000 nM to 2 nM final concentration). They were mixed with stimulating ligand for 1 hour in a 384 well microtitre plate. Freshly thawed and washed cells were added to the compound/stimulus mixture and further incubated for 18 hours. SEAP activity was determined in the supernatant using the colorimetric substrate Quanti-Blue™ (Invivogen).
(§3) Percentage inhibitions for compound dilutions were calculated between a DMSO control and maximum inhibition (by excess control compound) and an IC50 calculated using xlfit (4 parameter logistic model) in Activity Base.
(§4) The specific activity of each compound against the TNF-alpha response was compared to that seen with the counterscreens (IL-1beta and anti-human TNFR1 antibody).

Assay [7] relates to activation of NF-κB by activating anti-human TNFR1 antibody. The assay can be described thus: HEK-293 NF-κB SEAP reporter gene assay, activating TNF-R1 antibody counterscreen. It counts as cell-based. The note with it: HEK293, HEK-293 reporter cells, antibody 300 ng/ml. As to the method: as §1, §2, §3, §4

Chain of TNFα and TNF-R (P01375 77-233 limits assumed): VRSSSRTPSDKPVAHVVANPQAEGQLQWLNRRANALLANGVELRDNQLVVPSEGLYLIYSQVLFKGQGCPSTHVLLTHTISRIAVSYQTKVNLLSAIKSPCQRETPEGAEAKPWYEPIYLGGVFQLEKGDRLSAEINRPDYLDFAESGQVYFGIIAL
Chain of TNFα and TNF-R (P19438 30-211 partner limits assumed): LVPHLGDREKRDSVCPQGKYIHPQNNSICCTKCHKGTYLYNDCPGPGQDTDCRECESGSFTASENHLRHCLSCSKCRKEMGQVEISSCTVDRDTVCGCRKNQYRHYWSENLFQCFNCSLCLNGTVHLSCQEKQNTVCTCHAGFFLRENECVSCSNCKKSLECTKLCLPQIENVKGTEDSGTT

Broadly, the IC50 is the concentration needed to halve the response being measured. A low value points to higher potency. For the compound `Cc1ccc(C)c(Cn2c(C(O)c3ccncc3)nc3ccccc32)c1` (centres unmarked) [Compound (1), [1-(2,5-Dimethylbenzyl)-1H-benzimidazol-2-yl](pyridin-4-yl)methanol], the “binding to TNFα in the presence of TNF-R” value in assay [1] is “binds to TNFα even in the presence of TNF-R”. In assay [2], this compound came in with an IC50 of 454 nM. In addition, the “reduction of TNFα stimulated neutrophil recruitment into the peritoneal cavity” value amounted to 49% in assay [3] (30 mg/kg p.o. 30 minutes before hTNFα 0.03 μg/kg i.p.) and 79% in assay [3] (100 mg/kg p.o. 30 minutes before hTNFα 0.03 μg/kg i.p.). In addition, the “stabilisation of trimeric CD40L” value in assay [4] is on record as “stabilise trimeric CD40L”.

For the compound `Cc1ccc(C)c(Cn2c(C(O)c3ccncc3)nc3ccc(-c4cnn(C)c4)cc32)c1` (centres unmarked) [Compound (2), [1-(2,5-Dimethylbenzyl)-6-(1-methyl-1H-pyrazol-4-yl)-1H-benzimidazol-2-yl](pyridin-4-yl)methanol], the IC50 in assay [5] is 113 nM; in assay [6], above 30000 nM; in assay [7] it was above 30000 nM.
